Reference: BigSolDB 2.1

Nc1nc(N)nc(-c2ccncc2)n1
solubility (mole fraction)
Conditions | 288.15 K | 293.15 K | 298.15 K | 303.15 K | 308.15 K | 313.15 K | 318.15 K
in THF | 0.00308 | 0.00334 | 0.00362 | 0.0039 | 0.00407 | 0.00433 | 0.00455
in ethanol | 0.000734 | 0.000813 | 0.000925 | 0.0011 | 0.00122 | 0.00137 | 0.00159
in isopropanol | 0.000426 | 0.000506 | 0.000641 | 0.000787 | 0.000925 | 0.00116 | 0.00142
in methanol | 0.00138 | 0.00149 | 0.0017 | 0.00198 | 0.00214 | 0.00237 | 0.00269
in n-propanol | 0.000641 | 0.00072 | 0.00083 | 0.000942 | 0.00111 | 0.00128 | 0.00153
